Results on 1 compound are retold here after patent US10946030B2, “Formulations of deoxycholic acid and salts thereof” (ALLERGAN SALES, LLC, priority 2011, dated 2021).

“Also recorded” adds a separate entry of the source.

The nature of data set [1]: Concentration dependent precipitation from aqueous sodium deoxycholate solution after storage, rated by visual inspection. Particulars: 1 week storage; for Precipitation Rating: scale 0 = clear solution, 10 = substantial precipitation. In kind it is physicochemical. As to the method: Solutions of sodium deoxycholate at different concentration were evaluated for precipitate formation after 1 week of storage. […] By visual inspection of FIGS. 1-4, the amount of precipitation can be rated as tabulated below.

The nature of data set [2]: pH measurement of sodium deoxycholate solutions. Type of data set: physicochemical. The source says: The inverse aqueous solubility of sodium deoxycholate, where a more dilute solution (0.5% or 1%) provides more precipitation than a more concentrated solution (2%), is a surprising observation and also evidences that the precipitation phenomena is not directly related to pH, because the pH of the solutions were substantially the same again, especially for the 1% and 2% solutions.

As for `C[C@H](CCC(=O)[O-])[C@H]1CCC2C3CC[C@@H]4C[C@H](O)CC[C@]4(C)C3C[C@H](O)[C@@]21C.[Na+]` (stereo partly drawn) [Sodium Deoxycholate, sodium (4R)-4-((3R,5R,10S,12S,13R,17R)-3,12-dihydroxy-10,13-dimethylhexadecahydro-1H-cyclopenta[a]phenanthren-17-yl)pentanoate], the “Precipitate observed (Comment)” value in data set [1] (0.5% w/v in water + 0.9% w/v benzyl alcohol, FIG. 2) is “Significant amounts of precipitate visible”; in data set [1] (0.5% w/v in water + 0.9% w/v benzyl alcohol, FIG. 2, listed as sodium deoxycholate) it was “a significant amount of precipitate is formed; also recorded: significant amounts of precipitate”; in data set [1] (1% w/v in water + 0.9% w/v benzyl alcohol, FIG. 3) it was “Significant amounts of precipitate visible”; in data set [1] (1% w/v in water + 0.9% w/v benzyl alcohol, FIG. 3, listed as sodium deoxycholate), “a significant amount of precipitate is formed; also recorded: significant amounts of precipitate, albeit less than that of 0.5% w/v sodium deoxycholate”; in data set [1] (2% w/v in water + 0.9% w/v benzyl alcohol, FIG. 4), “Precipitation visible to the naked eye but”; in data set [1] (2% w/v in water + 0.9% w/v benzyl alcohol, FIG. 4, listed as sodium deoxycholate), “significant amounts of precipitate but substantially less than that observed in FIGS. 2 and 3”. Besides, the “Precipitation Rating” value was found to be 10 in data set [1] (0.5% w/v in water + 0.9% w/v benzyl alcohol), 7 in data set [1] (1.0% w/v in water + 0.9% w/v benzyl alcohol) and 2 in data set [1] (2.0% w/v in water + 0.9% w/v benzyl alcohol). Besides, the pH is listed as 7.77 in data set [2] (0.5% w/v solution, reading 1, 24.7 °C); 7.71 in data set [2] (0.5% w/v solution, reading 2, 24.5 °C); 7.93 in data set [2] (1% w/v solution, reading 1, 24.6 °C); 7.97 in data set [2] (1% w/v solution, reading 2, 24.5 °C); 8.07 in data set [2] (2% w/v solution, reading 1, 24.9 °C); 8.06 in data set [2] (2% w/v solution, reading 2, 24.7 °C).
